ChEMBL document CHEMBL2016486, “Synthesis of [Tyr-5-Ψ(CH2NMe)-Tyr-6]RA-VII, a reduced peptide bond analogue of RA-VII, an antitumor bicyclic hexapeptide” (Bioorg Med Chem Lett, 2012)
Values after ≈ are worked out from the molar mass of the structure shown.

Tested on: P388
Test: Cytotoxicity against mouse P388 cells
Format: functional, cell-based

Row | Compound | IC50
1 | COc1ccc(C[C@H]2C(=O)N[C@@H](C)C(=O)N(C)[C@H]3Cc4ccc(cc4)Oc4cc(ccc4OC)C[C@@H](C(=O)N[C@H](C)C(=O)N[C@@H](C)C(=O)N2C)N(C)C3)cc1 | 5 µg/mL (≈ 6.61 µM)
2 | COc1ccc(C[C@H]2C(=O)N[C@@H](C)C(=O)N(C)[C@H]3Cc4ccc(cc4)Oc4cc(ccc4OC)C[C@@H](C(=O)N[C@H](C)C(=O)N[C@@H](C)C(=O)N2C)N(C)C3=O)cc1 | 0.0043 µg/mL (≈ 0.00558 µM)
